{"source": "paper PMC10683025", "about": "“Discovery of a Hydroxylamine-Based Brain-Penetrant EGFR Inhibitor for Metastatic Non-Small-Cell Lung Cancer” (Journal of Medicinal Chemistry, 2023)", "key": {"TA100": {"tested_on": "TA100", "assay": "Background bacterial cytotoxicity assay", "set-up": "species or system Salmonella; key to Flag: A cytotoxicity value of less than 60% is flagged and the compound is considered as toxic (denoted as Cytox.); A hyphen (-) denotes no cytotoxicity at the respective concentration", "description": "Compounds were assessed for mutagenicity at the Eurofins Panlabs in 384-well plates using four Salmonella strains: TA98, to probe for frameshift mutation (with quercetin as control), TA100 and TA1535, to probe for base pair insertions/deletions (with streptozotocin as control), and TA1537, to probe for frameshift mutations (with aminacridine as control) as previously described.[78] Each compound was incubated at 37 °C for 96 h at four different concentrations (5, 10, 50, and 100 μM), with each concentration tested using 48 replicates, both with and without rat liver S9 metabolic activation. A concurrent bacterial cytotoxicity assay was run at 0.6, 1.2, 2.5, 5, 10, 25, 50, and 100 μM to rule out false negatives. Bacterial cytotoxicity was expressed as percent of control growth (OD650). Compounds with growth of less than 60% control were flagged and considered bacterial cytotoxic. […] Significances of the positive counts between the treatment and control were determined using a one-tailed Fisher’s exact test."}, "ZAP70": {"target": "T1, ZAP70 (Homo sapiens, UniProt P43403)", "T1 construct": "purchased Eurofins DiscoverX (KINOMEScan service)", "assay": "KINOMEScan", "format": "binding", "settings": "ZAP70, 1 µM; read-out: Percent Control", "excerpt": "(§1) Percent control was mapped onto the kinome tree using TREEspot."}, "[1]": {"tested_on": "HER2+ breast cancer cell lines", "assay": "CellTiter-Glo cell viability assay", "format": "cell-based", "settings": "Homo sapiens; range over cell lines; read-out: IC50's in HER2+ breast cancer cell lines", "description": "The A431, HCC827, SK-BR-3, ZR-75–30, AU565, and Caco-2 cell lines were obtained from ATCC. The NCI-H1975 cell line was obtained from SIBS. The NCI-H3255 cell line was obtained from CoBioer. Engineered Ba/F3 cell lines were obtained from Crown Bioscience. MCKII-MDR1 cells were obtained from The Netherlands Cancer Institute. HEK293 cells were obtained from Invitrogen. A431 cells were cultured in DMEM (Life Technologies) with 10% FBS. HCC827, NCI-H1975, and AU565 cells were cultured in RPMI1640 (Invitrogen) with 10% FBS. NCI-H3255 cells were cultured in BEGM (Lonza) with 10% FBS. Ba/F3 EGFR-del E746_A750/C797S and Ba/F3 EGFR-L858R/C797S cells were cultured in RPMI (Invitrogen) with 10% FBS. SK-BR-3 cells were cultured in McCoy’s 5a (Invitrogen) with 10% FBS. ZR-75-30 cells were cultured in RPMI1640 (Invitrogen) with 20% FBS. Caco-2 and MCKII-MDR1 culture information is given in the Permeability Studies section. HEK293 cells were cultured in DMEM (Gibco) with 10% FBS, 0.1 mM NEAA, 25 mM HEPES, 100 U/mL penicillin-streptomycin, μg/mL blasticidin, and 400 μg/mL Geneticin. All cells were cultured in a humidified incubator with 5% CO2 at 37 °C.\nViability assays using A431, HCC827, NCI-H1975, NCI-H3255, Ba/F3 EGFR-del E746_A750/C797S, Ba/F3 EGFR-L858R/C797S, AU565, SK-BR-3, and ZR-75-30 cells were performed at Crown BioScience. Cells were plated into 96-well plates at 1500–7000 cells per well and dosed in triplicate (n = 3) in a nine-point, 4-fold dilution series with compounds (0.15 nM to 10 μM) in DMSO and incubated for 72 h. After 72 h, cell viability was assayed by CellTiter-Glo Luminescent Viability Assay (Promega). Dose–response curves were generated and used to calculate the IC50 values which were calculated on GraphPad Prism from the nonlinear regression equation fitted with a sigmoidal dose response and are presented as mean ± SEM."}, "[2]": {"target": "T2, ABL1(E255K)-phosphorylated (Homo sapiens, UniProt P00519, E255K)", "T2 construct": "purchased Eurofins DiscoverX", "T2 sequence (P00519 whole entry E255K)": "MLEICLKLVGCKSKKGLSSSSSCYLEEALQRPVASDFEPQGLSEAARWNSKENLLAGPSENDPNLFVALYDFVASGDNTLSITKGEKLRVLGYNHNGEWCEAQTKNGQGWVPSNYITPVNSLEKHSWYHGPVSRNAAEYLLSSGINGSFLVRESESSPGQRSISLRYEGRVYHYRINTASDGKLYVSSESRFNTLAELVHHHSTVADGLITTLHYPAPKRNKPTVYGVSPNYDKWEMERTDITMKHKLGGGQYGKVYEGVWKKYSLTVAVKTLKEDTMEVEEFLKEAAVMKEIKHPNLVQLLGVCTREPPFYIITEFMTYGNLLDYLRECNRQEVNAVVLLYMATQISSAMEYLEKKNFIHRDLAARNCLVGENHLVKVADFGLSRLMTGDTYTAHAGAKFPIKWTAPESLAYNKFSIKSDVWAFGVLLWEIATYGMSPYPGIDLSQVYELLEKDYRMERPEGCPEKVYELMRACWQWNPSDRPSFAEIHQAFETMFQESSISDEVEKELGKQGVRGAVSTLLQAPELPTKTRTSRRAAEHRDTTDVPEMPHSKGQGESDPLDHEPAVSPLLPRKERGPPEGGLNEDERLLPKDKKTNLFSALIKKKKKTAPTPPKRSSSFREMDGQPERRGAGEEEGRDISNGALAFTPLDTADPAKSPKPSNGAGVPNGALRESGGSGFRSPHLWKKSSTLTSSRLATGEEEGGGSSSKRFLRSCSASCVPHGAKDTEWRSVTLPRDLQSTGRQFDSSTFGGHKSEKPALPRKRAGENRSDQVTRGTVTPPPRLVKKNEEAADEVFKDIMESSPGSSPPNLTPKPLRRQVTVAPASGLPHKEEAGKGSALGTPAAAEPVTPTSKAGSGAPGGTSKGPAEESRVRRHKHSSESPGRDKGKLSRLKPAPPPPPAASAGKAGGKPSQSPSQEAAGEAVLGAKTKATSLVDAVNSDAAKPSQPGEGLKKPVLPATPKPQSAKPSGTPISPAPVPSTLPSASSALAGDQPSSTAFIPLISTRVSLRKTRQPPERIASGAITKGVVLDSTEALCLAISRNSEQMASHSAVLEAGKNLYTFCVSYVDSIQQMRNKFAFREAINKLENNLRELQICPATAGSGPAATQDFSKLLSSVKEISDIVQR", "assay": "KINOMEScan", "format": "binding", "settings": "read-out: Percent Control", "excerpt": "as §1"}, "ALK(L1196M)": {"target": "T3, ALK(L1196M) (Homo sapiens, UniProt Q9UM73, L1196M)", "T3 construct": "purchased Eurofins DiscoverX (KINOMEscan)", "T3 sequence (Q9UM73 19-1620 L1196M)": "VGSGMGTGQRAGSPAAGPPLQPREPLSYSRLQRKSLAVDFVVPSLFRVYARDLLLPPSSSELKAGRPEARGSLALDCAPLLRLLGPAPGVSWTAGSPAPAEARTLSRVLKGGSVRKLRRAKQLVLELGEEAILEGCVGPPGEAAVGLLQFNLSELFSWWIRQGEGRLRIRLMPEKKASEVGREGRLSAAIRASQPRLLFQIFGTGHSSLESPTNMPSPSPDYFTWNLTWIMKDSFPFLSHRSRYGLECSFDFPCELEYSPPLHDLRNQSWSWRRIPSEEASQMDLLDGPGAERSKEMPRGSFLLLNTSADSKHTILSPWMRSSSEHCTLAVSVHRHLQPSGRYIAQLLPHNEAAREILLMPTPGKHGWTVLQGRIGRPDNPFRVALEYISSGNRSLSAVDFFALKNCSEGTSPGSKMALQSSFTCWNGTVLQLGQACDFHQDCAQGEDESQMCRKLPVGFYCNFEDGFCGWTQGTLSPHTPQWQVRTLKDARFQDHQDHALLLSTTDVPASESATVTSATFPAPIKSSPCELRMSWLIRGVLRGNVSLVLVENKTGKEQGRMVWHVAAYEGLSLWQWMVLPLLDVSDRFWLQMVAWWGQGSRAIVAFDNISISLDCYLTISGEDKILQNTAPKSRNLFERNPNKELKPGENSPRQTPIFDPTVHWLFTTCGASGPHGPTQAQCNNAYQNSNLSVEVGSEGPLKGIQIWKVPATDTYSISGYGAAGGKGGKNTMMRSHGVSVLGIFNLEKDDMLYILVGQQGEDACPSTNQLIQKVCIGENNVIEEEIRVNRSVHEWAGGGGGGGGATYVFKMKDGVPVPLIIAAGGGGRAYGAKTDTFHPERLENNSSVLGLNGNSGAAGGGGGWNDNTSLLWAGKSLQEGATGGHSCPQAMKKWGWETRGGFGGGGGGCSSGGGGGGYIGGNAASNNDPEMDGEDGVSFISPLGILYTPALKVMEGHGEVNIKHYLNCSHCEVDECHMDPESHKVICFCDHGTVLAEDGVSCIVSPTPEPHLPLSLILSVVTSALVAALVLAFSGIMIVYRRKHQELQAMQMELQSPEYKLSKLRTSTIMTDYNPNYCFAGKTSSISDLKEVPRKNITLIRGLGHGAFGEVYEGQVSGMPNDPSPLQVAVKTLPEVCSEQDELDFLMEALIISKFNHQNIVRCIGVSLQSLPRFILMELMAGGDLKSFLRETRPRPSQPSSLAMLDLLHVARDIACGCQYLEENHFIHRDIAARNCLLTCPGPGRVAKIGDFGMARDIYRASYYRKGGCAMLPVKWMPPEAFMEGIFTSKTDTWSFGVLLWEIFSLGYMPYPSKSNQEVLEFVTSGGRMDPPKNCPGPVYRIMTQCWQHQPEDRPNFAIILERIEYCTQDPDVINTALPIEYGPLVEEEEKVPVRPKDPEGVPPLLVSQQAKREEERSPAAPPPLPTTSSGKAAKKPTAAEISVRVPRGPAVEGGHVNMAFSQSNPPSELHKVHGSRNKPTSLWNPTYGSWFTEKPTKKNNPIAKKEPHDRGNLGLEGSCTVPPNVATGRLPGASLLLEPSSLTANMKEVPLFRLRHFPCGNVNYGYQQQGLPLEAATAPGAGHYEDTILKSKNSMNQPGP", "assay": "KINOMEScan", "format": "binding", "settings": "read-out: Percent Control", "excerpt": "as §1"}, "ABL1-phosphorylated": {"target": "T4, ABL1-phosphorylated (Homo sapiens, UniProt P00519)", "T4 construct": "purchased Eurofins DiscoverX", "assay": "KINOMEScan", "format": "binding", "settings": "read-out: Percent Control", "excerpt": "as §1"}, "[3]": {"target": "T5, ABL1(F317I)-nonphosphorylated (Homo sapiens, UniProt P00519, F317I)", "T5 construct": "purchased Eurofins DiscoverX", "T5 sequence (P00519 whole entry F317I)": "as the sequence (P00519 whole entry E255K) above, with K255E, F317I counted along it", "assay": "KINOMEScan", "format": "binding", "settings": "read-out: Percent Control", "excerpt": "as §1"}, "CYP2D6": {"target": "CYP2D6 (Homo sapiens, UniProt P10635)", "sequence (P10635 whole entry)": "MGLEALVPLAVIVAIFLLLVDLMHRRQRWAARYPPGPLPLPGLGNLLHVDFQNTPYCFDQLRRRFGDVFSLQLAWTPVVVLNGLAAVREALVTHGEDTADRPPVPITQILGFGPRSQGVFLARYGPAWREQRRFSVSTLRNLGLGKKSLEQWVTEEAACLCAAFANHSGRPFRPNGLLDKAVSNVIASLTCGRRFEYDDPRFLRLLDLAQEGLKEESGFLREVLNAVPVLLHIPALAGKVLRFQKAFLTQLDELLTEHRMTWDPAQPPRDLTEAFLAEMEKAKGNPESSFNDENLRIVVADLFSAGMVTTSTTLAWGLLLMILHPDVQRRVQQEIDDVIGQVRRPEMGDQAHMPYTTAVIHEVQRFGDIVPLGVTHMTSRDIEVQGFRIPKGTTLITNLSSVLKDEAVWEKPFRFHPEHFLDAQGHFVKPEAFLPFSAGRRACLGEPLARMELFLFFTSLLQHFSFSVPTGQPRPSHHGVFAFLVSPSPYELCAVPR", "assay": "CYP450 inhibition in human liver microsomes", "format": "in vitro ADME", "set-up": "tissue BD Gentest 452117; host or cells: pooled human liver microsomes, mixed gender", "quoted_text": "The activities tested were CYP1A2-mediated phenacetin O-demethylation, CYP2C19-mediated (S)-mephenyotin 4′-hydroxylation, CYP2C9-mediated diclofenac 4′-hydroxylation, CYP2D6-mediated dextromethorphan O-demethylation, and CYP3A4-mediated midazolam 1′-hydroxylation. […] The reactions were initiated by adding NADPH (1 mM final concentration) after a 5 min preincubation, and the assay was run in duplicate (n = 2). Samples were analyzed by ultra-performance liquid chromatography tandem mass spectrometry (UPLC-MS/MS)."}, "LYN": {"target": "T6, LYN (Homo sapiens, UniProt P07948)", "T6 construct": "purchased Eurofins DiscoverX (contract assay)", "assay": "KINOMEScan", "format": "binding", "settings": "read-out: Percent Control", "excerpt": "as §1"}, "ABL2": {"target": "T7, ABL2 (Homo sapiens, UniProt P42684)", "T7 construct": "purchased Eurofins DiscoverX", "assay": "KINOMEScan", "format": "binding", "settings": "ABL2, 1 µM; read-out: Percent Control", "excerpt": "as §1"}, "ZAK": {"target": "T8, ZAK (Homo sapiens, UniProt Q9NYL2)", "T8 construct": "purchased Eurofins DiscoverX (KINOMEScan service)", "assay": "KINOMEScan", "format": "binding", "settings": "read-out: Percent Control"}, "[4]": {"target": "T9, ABL1(F317L)-nonphosphorylated (Homo sapiens, UniProt P00519, F317L)", "T9 construct": "purchased Eurofins DiscoverX", "T9 sequence (P00519 whole entry F317L)": "as the sequence (P00519 whole entry E255K) above, with K255E, F317L counted along it", "assay": "KINOMEScan", "format": "binding", "settings": "read-out: Percent Control", "excerpt": "as §1"}, "PIKFYVE": {"target": "T10, PIKFYVE (Homo sapiens, UniProt Q9Y2I7)", "T10 construct": "purchased Eurofins DiscoverX (KINOMEScan service)", "assay": "KINOMEScan", "format": "binding", "settings": "read-out: Percent Control"}}, "note": "Several values for one entry are separate records, joined by “and”; a condition that tells them apart may be missing. Equal entries are not always repeated.", "data": [{"compound": "COc1cc2ncnc(Nc3cccc(Cl)c3F)c2cc1OCCON1CCN(C)CC1", "note": "[Compound 9, N-(3-Chloro-2-fluorophenyl)-7-methoxy-6-(2-((4-methylpiperazin-1-yl)oxy)ethoxy)quinazolin-4-amine]", "values": [{"measurement": "Flag", "setting": "TA100; TA100-S9, 1.0E-04 M", "result": "Cytox. (A cytotoxicity value of less than 60% is flagged and the compound is considered as toxic (denoted as Cytox.))"}, {"measurement": "Mean % Control (n = 3)", "setting": "TA100; TA100-S9, 1.0E-04 M", "result": 34.0, "unit": "%"}, {"measurement": "Flag", "setting": "TA100; TA100-S9, 1.0E-05 M", "result": "-"}, {"measurement": "Mean % Control (n = 3)", "setting": "TA100; TA100-S9, 1.0E-05 M", "result": 90.3, "unit": "%"}, {"measurement": "Flag", "setting": "TA100; TA100-S9, 1.2E-06 M", "result": "-"}, {"measurement": "Mean % Control (n = 3)", "setting": "TA100; TA100-S9, 1.2E-06 M", "result": 91.2, "unit": "%"}, {"measurement": "Flag", "setting": "TA100; TA100-S9, 2.5E-05 M", "result": "-"}, {"measurement": "Mean % Control (n = 3)", "setting": "TA100; TA100-S9, 2.5E-05 M", "result": 80.9, "unit": "%"}, {"measurement": "Flag", "setting": "TA100; TA100-S9, 2.5E-06 M", "result": "-"}, {"measurement": "Mean % Control (n = 3)", "setting": "TA100; TA100-S9, 2.5E-06 M", "result": 89.5, "unit": "%"}, {"measurement": "Flag", "setting": "TA100; TA100-S9, 5.0E-05 M", "result": "-"}, {"measurement": "Mean % Control (n = 3)", "setting": "TA100; TA100-S9, 5.0E-05 M", "result": 67.3, "unit": "%"}, {"measurement": "Flag", "setting": "TA100; TA100-S9, 5.0E-06 M", "result": "-"}, {"measurement": "Mean % Control (n = 3)", "setting": "TA100; TA100-S9, 5.0E-06 M", "result": 93.2, "unit": "%"}, {"measurement": "Flag", "setting": "TA100; TA100-S9, 6.0E-07 M", "result": "-"}, {"measurement": "Mean % Control (n = 3)", "setting": "TA100; TA100-S9, 6.0E-07 M", "result": 91.6, "unit": "%"}, {"measurement": "remaining binding at 1 µM", "setting": "ZAP70", "result": 98, "unit": "%"}, {"measurement": "IC50", "setting": "[1]", "result": "990 to 1600", "unit": "nM"}, {"measurement": "remaining binding at 1 µM", "setting": "[2]", "result": 6.4, "unit": "%"}, {"measurement": "remaining binding at 1 µM", "setting": "ALK(L1196M)", "result": 100, "unit": "%"}, {"measurement": "remaining binding at 1 µM", "setting": "ABL1-phosphorylated", "result": 7.7, "unit": "%"}, {"measurement": "remaining binding at 1 µM", "setting": "[3]", "result": 54, "unit": "%"}, {"measurement": "IC50", "setting": "CYP2D6", "result": "1100 nM and 1110 nM"}, {"measurement": "remaining binding at 1 µM", "setting": "LYN", "result": 7.4, "unit": "%"}, {"measurement": "remaining binding at 1 µM", "setting": "ABL2", "result": 64, "unit": "%"}, {"measurement": "remaining binding at 1 µM", "setting": "ZAK", "result": 89, "unit": "%"}, {"measurement": "remaining binding at 1 µM", "setting": "[4]", "result": 16, "unit": "%"}, {"measurement": "remaining binding at 1 µM", "setting": "PIKFYVE", "result": 1.6, "unit": "%"}]}]}
